Like-named read-outs stand apart in the source and are kept apart here.
What was measured:
[1] = tested on: OVCAR-5; assay: SRB anti-cancer assay, Ovarian Cancer; type: cell-based, human; settings: OVCAR-5 (Ovarian Cancer), 48 h; for CC50: read-out: LC50 (the source's name)
[2] = tested on: MDA-MB- 231/ATCC; assay: SRB anti-cancer assay, Breast Cancer; type: cell-based, human; settings: MDA-MB- 231/ATCC (Breast Cancer), 48 h; for CC50: read-out: LC50 (the source's name)
[3] = tested on: NCI-H23; type: cell-based, human; settings: NCI-H23 (Non-Small Cell Lung Cancer), 48 h; for CC50: read-out: LC50 (the source's name)
[4] = tested on: MDA-N; assay: SRB anti-cancer assay, Breast Cancer; type: cell-based, human; settings: 48 h; for CC50: read-out: LC50 (the source's name)
[5] = tested on: UACC-62; assay: SRB anti-cancer assay, Melanoma; type: cell-based, human; settings: UACC-62 (Melanoma), 48 h; for CC50: read-out: LC50 (the source's name)
[6] = tested on: Varicella Zoster virus (VZV); assay: Antiviral test against VZV; type: cell-based
Procedure: These compounds were also tested for their effects on HIV (Weislow, O. , et al., J. Natl. Cancer Inst., 81:577-586, 1989), herpes simplex virus (HSV)-1, HSV-2, cytomegalovirus (CMV), Varicella Zoster virus (VZV) and Epstein-Barr virus (EBV) replication (National Institute of Allergy and Infectious Diseases (NIAID), NIH, Bethesda, Md.).

[7] = tested on: NCI-H226; type: cell-based, human; settings: NCI-H226 (Non-Small Cell Lung Cancer), 48 h; for CC50: read-out: LC50 (the source's name)
[8] = tested on: A498; assay: SRB anti-cancer assay, Renal Cancer; type: cell-based, human; settings: 48 h; for CC50: read-out: LC50 (the source's name)
[9] = tested on: UO-31; assay: SRB anti-cancer assay, Renal Cancer; type: cell-based, human; settings: UO-31 (Renal Cancer), 48 h; for CC50: read-out: LC50 (the source's name)
[10] = tested on: MOLT-4; assay: SRB anti-cancer assay, Leukemia; type: cell-based, human; settings: MOLT-4 (Leukemia), 48 h; for CC50: read-out: LC50 (the source's name)
[11] = tested on: HOP-62; type: cell-based, human; settings: HOP-62 (Non-Small Cell Lung Cancer), 48 h
[12] = tested on: SF-295; assay: SRB anti-cancer assay, CNS Cancer; type: cell-based, human; settings: SF-295 (CNS Cancer), 48 h; for CC50: read-out: LC50 (the source's name)
[13] = tested on: RXF 393; assay: SRB anti-cancer assay, Renal Cancer; type: cell-based, human; settings: RXF 393 (Renal Cancer), 48 h; for CC50: read-out: LC50 (the source's name)
[14] = tested on: Hepatitis B virus (HBV); assay: Anti-HBV assay in 2.2.15 cells (virion DNA, HBV RI); type: cell-based; settings: for HBV RI, percentage of control / Virion DNA, percentage of control: 10 μM, day 9, 2.2.15 cells
Procedure: The anti-HBV assays were performed according to the published protocol of Korba and Milman, (Korba, B. E.; Milman, G. Antiviral Res., 15, 217 1991), using cultures of 2.2.15 cells. In brief, the assay consisted of (a) seeding the chronically HBV-producing human liver cells (Acs et al. Proc. Nat. Acad. Sci., 84, 464 1987) into 24-well tissue culture plates, and growing to confluence, (b) adding test compounds daily for a continuous 9-day period, harvesting culture media after day 9 and (c) lysing treated cells 24 hours following day 9 of treatment for the analysis of extracellular virion DNA and intracellular HBV genomic forms.
Anti-HBV activity and the toxicity against confluent 2.2.15 cells were determined by the previously described procedure (Korba, B. E., et al. Antivir. Res., 19:55-70, 1992; Korba, B. E., et al. Antivir. Res., 15:217-228, 1991). Briefly, confluent cultures of HBV transfected 2.2.15 cells were maintained on either 96-well or 24-well flat-bottomed tissue culture plates in RPMI 1640 medium with 2% fetal bovine serum (FBS). The cells were treated with test compounds daily for nine consecutive days. The culture media were harvested on day 9 to quantify the amount of virion DNA. On day 10, the cells were lysed to quantify the amount of intracellular HBV replicative intermediates (RI). The quantification of virion DNA and the HBV RI were done by blot hybridization methods (Korba, B. E., et al. Antivir. Res., 19:55-70, 1992; Korba, B. E., et al. Antivir. Res., 15:217-228, 1991). Cellular toxicity against separate cultures of confluent 2.2.15 cells was measured after treatment with the compounds for nine days under identical culture conditions as those used for the antiviral assay (Korba, B. E., et al. Antivir. Res., 19:55-70, 1992). Uptake of neutral red dye by treated cells was compared with dye uptake by untreated control cells (Korba, B. E., et al. Antivir. Res., 19:55-70, 1992).

[15] = tested on: 786-0; assay: SRB anti-cancer assay, Renal Cancer; type: cell-based, human; settings: 786-0 (Renal Cancer), 48 h; for CC50: read-out: LC50 (the source's name)
[16] = tested on: SNB-19; assay: SRB anti-cancer assay, CNS Cancer; type: cell-based, human; settings: SNB-19 (CNS Cancer), 48 h; for CC50: read-out: LC50 (the source's name)
[17] = tested on: SK-MEL-5; assay: SRB anti-cancer assay, Melanoma; type: cell-based, human; settings: SK-MEL-5 (Melanoma), 48 h; for CC50: read-out: LC50 (the source's name)
[18] = tested on: HS 578T; assay: SRB anti-cancer assay, Breast Cancer; type: cell-based, human; settings: HS 578T (Breast Cancer), 48 h; for CC50: read-out: LC50 (the source's name)
[19] = tested on: panel of cancer cell lines; assay: In vitro anti-cancer assay, panel of cancer cell lines (sulforhodamine B); type: cell-based, human; settings: leukemia, non-small cell lung, colon, CNS, melanoma, ovarian, renal, prostate and breast cancer cell lines; read-out: GI50 values, range over the panel
[20] = extracellular HBV virion DNA, 10 fold inhibition, 9 days, read-out: EC90 Virion
[21] = extracellular HBV virion DNA, 9 days, read-out: EC50 Virion

## N=c1[nH]c(=O)c2ncn([C@@H]3O[C@H](CO)[C@@H](O)[C@H]3O)c2c(=O)[nH]1 [Compound 14-1, 6-Imino-6H-1-β-D-ribofuranosyl-4,5,7,8-tetrahydroimidazo[4,5-e][1,3]diazepine-4,8-dione]
[1]
  GI50: > 100 µM
  TGI: >100 µM
  CC50: > 100 µM
[2]
  TGI: >100 µM
  CC50: > 100 µM
[3]
  GI50: > 100 µM
  TGI: >100 µM
  CC50: > 100 µM
[4]
  GI50: > 100 µM
  TGI: >100 µM
  CC50: > 100 µM
[5]
  GI50: > 100 µM
  TGI: >100 µM
  CC50: > 100 µM
[6]
  antiviral activity against VZV: no antiviral activity
[7]
  GI50: > 100 µM
  TGI: >100 µM
  CC50: > 100 µM
[8]
  GI50: > 100 µM
  TGI: >100 µM
  CC50: > 100 µM
[9]
  GI50: > 100 µM
  TGI: >100 µM
  CC50: > 100 µM
[10]
  GI50: > 100 µM
  TGI: >100 µM
  CC50: > 100 µM
[11]
  GI50: > 100 µM
  LC50 (concentration for 50% net cell kill): > 100 µM
  TGI: >100 µM
[12]
  GI50: > 100 µM
  TGI: >100 µM
  CC50: > 100 µM
[13]
  TGI: >100 µM
  CC50: > 100 µM
[14]
  HBV RI, percentage of control: 15 ± 2 %
  Virion DNA, percentage of control: 4 ± 1 %
[14]; assay repeated three times, read-out: average EC90 for HBV virion inhibition
  EC90: 1.29 µM
[14]; [20]
  EC90: 0.989 ± 0.11 µM
[14]; [21]
  EC50: 0.131 µM
[14]; intracellular HBV DNA replicative intermediates, 10 fold inhibition, 9 days, read-out: EC90 HBV RI
  EC90: 7.3 ± 0.7 µM
[14]; intracellular HBV DNA replicative intermediates, 9 days, read-out: EC50 HBV RI
  EC50: 0.604 µM
[14]; transfected hepatoma cell line 2.2.15, Example 13, read-out: EC50 (anti-HBV activity)
  EC50: 0.17 µM
[15]
  GI50: > 100 µM
  TGI: >100 µM
  CC50: > 100 µM
[16]
  GI50: > 100 µM
  TGI: >100 µM
  CC50: > 100 µM

## N=c1nc(N)c2ncn([C@@H]3O[C@H](COC(=O)c4ccccc4)[C@@H](OC(=O)c4ccccc4)[C@H]3OC(=O)c3ccccc3)c2c(N)n1 [4,8-Diamino-6H-6-imino-1(2′,3′,5′-tri-O-benzoyl-β-D-ribofuranosyl)imidazo[4,5-e][1,3]diazepine]
[17]
  GI50: 1.36 µM
  TGI: 2.64 µM
  CC50: 5.16 µM
[1]
  GI50: 15.7 µM
  TGI: 30.1 µM
  CC50: 57.7 µM
[2]
  GI50: 5 µM
  TGI: 22 µM
  CC50: 61.6 µM
[3]
  GI50: 12.3 µM
  TGI: 27.7 µM
  CC50: 62.3 µM
[4]
  GI50: 5.88 µM
  TGI: 21.7 µM
  CC50: 58.6 µM
[5]
  GI50: 15.6 µM
  TGI: 33.4 µM
  CC50: 71.5 µM
[7]
  GI50: 6.89 µM
  TGI: 25.1 µM
  CC50: 72.4 µM
[8]
  GI50: 20 µM
  TGI: 37.8 µM
  CC50: 71.8 µM
[18]
  GI50: 15.8 µM
  TGI: 40.1 µM
  CC50: > 100 µM
[9]
  GI50: 6.4 µM
  TGI: 20.6 µM
  CC50: 51.1 µM
[10]
  GI50: 2.31 µM
  TGI: 7.08 µM
  CC50: > 100 µM
[11]
  GI50: 7.64 µM
  LC50 (concentration for 50% net cell kill): 55.6 µM
  TGI: 22.7 µM
[19]
  GI50: 0.1 to 10 µM
[12]
  GI50: 6.03 µM
  TGI: 19.6 µM
  CC50: 49.2 µM
[15]
  GI50: 15.5 µM
  TGI: 35.6 µM
  CC50: 81.5 µM
[16]
  GI50: 14.7 µM
  TGI: 31.6 µM
  CC50: 68.2 µM

## N=c1nc(N)c2ncn([C@@H]3O[C@H](CO)[C@@H](O)[C@H]3O)c2c(N)n1 [Compound 14-2, 4,8-Diamino-6H-6-imino-1-β-D-ribofuranosylimidazo[4,5-e][1,3]diazepine]
[17]
  GI50: 10.8 µM
  TGI: 23.5 µM
  CC50: 50.9 µM
[1]
  GI50: 16.8 µM
  TGI: 32.7 µM
  CC50: 64 µM
[2]
  GI50: 23.8 µM
  TGI: 52.8 µM
  CC50: > 100 µM
[3]
  GI50: 16.8 µM
  TGI: 33.4 µM
  CC50: 66.2 µM
[4]
  GI50: 12.5 µM
  TGI: 26.1 µM
  CC50: 54.5 µM
[5]
  GI50: 2.88 µM
  TGI: 16.2 µM
  CC50: 56.3 µM
[6]
  antiviral activity against VZV: no antiviral activity
[7]
  GI50: 33.2 µM
  TGI: >100 µM
  CC50: > 100 µM
[8]
  GI50: 23.1 µM
  TGI: 74.7 µM
  CC50: > 100 µM
[18]
  GI50: 7.58 µM
  TGI: 31.6 µM
  CC50: > 100 µM
[9]
  GI50: 13.7 µM
  TGI: 28.9 µM
  CC50: 61.2 µM
[11]
  GI50: 28.5 µM
  LC50 (concentration for 50% net cell kill): > 100 µM
  TGI: >100 µM
[19]
  GI50: 1 to 10 µM
[12]
  GI50: 24.7 µM
  TGI: 63.7 µM
  CC50: > 100 µM
[13]
  GI50: 7.51 µM
  TGI: 25.6 µM
  CC50: 74.2 µM
[14]
  HBV RI, percentage of control: 6 ± 1 %
  Virion DNA, percentage of control: 1 ± 1 %
[14]; [20]
  EC90: 4.7 ± 0.5 µM
[14]; [21]
  EC50: 0.397 ± 0.03 µM
[15]
  GI50: 15.7 µM
  TGI: 47 µM
[16]
  GI50: 17.1 µM
  TGI: 51.5 µM
  CC50: > 100 µM

From patent US6677310B1, “Ring-expanded nucleosides and nucleotides” (Nabi, priority 1999, dated 2004)
